{"source": "ChEMBL document CHEMBL1139785", "about": "“Synthesis of novel HIV protease inhibitors (PI) with activity against PI-resistant virus” (Bioorg Med Chem Lett, 2007)", "key": {"Protease": {"target": "Protease (Human immunodeficiency virus 1, UniProt Q9YQ12)", "sequence (Q9YQ12 whole entry)": "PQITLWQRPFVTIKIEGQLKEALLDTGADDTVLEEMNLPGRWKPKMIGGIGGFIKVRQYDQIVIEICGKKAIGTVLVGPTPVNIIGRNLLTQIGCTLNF", "test": "Inhibition of wild type HIV1 NL4-3 protease"}, "[1]": {"tested_on": "Human immunodeficiency virus 1", "test": "Antiviral activity against HIV1 NL4-3 in MT4 cells by viral spread assay", "format": "functional", "conditions": "Human immunodeficiency virus 1, NL4-3, MT4; read-out: CIC95"}, "[2]": {"test": "Inhibition of HIV1 NL4-3 protease K60C mutant", "design": "species or system Human immunodeficiency virus 1"}, "[3]": {"test": "Inhibition of HIV1 NL4-3 protease V18C mutant", "design": "species or system Human immunodeficiency virus 1"}, "[4]": {"tested_on": "Human immunodeficiency virus 1", "test": "Antiviral activity against HIV1 with protease K60C mutant in MT4 cells by viral spread assay", "conditions": "Human immunodeficiency virus 1, MT4; read-out: CIC95"}, "[5]": {"tested_on": "Human immunodeficiency virus 1", "test": "Antiviral activity against HIV1 with protease V18C mutant in MT4 cells by viral spread assay", "conditions": "Human immunodeficiency virus 1, MT4; read-out: CIC95"}}, "data": [{"smiles": "Cc1nsc(C)c1CNC(=O)[C@H]1N(C(=O)[C@@H](O)C[C@@H](Cc2ccccc2)C(=O)N[C@H]2c3ccccc3OC[C@H]2O)COC12CCCC2", "values": [{"measurement": "IC50", "setting": "Protease", "result": 0.1, "unit": "nM"}, {"measurement": "IC95", "setting": "[1]", "result": 125, "unit": "nM"}, {"measurement": "IC50", "setting": "[2]", "result": 0.4, "unit": "nM"}, {"measurement": "IC50", "setting": "[3]", "result": 0.8, "unit": "nM"}, {"measurement": "IC95", "setting": "[4]", "result": 250, "unit": "nM"}, {"measurement": "IC95", "setting": "[5]", "result": 250, "unit": "nM"}]}, {"smiles": "Cc1cccc(C)c1CNC(=O)[C@@H]1CCCN1C(=O)[C@@H](O)C[C@@H](Cc1ccccc1)C(=O)N[C@H]1c2ccccc2OC[C@H]1O", "values": [{"measurement": "IC50", "setting": "Protease", "result": 14, "unit": "nM"}, {"measurement": "IC95", "setting": "[1]", "result": 1000, "unit": "nM"}]}, {"smiles": "Cc1cccc(C)c1CNC(=O)[C@H]1N(C(=O)[C@@H](O)C[C@@H](Cc2ccccc2)C(=O)N[C@H]2c3ccccc3OC[C@H]2O)CSC1(C)C", "values": [{"measurement": "IC50", "setting": "Protease", "result": 0.03, "unit": "nM"}, {"measurement": "IC95", "setting": "[1]", "result": 15, "unit": "nM"}]}, {"smiles": "Cc1cccc(C)c1CNC(=O)[C@H]1N(C(=O)[C@@H](O)C[C@@H](Cc2ccccc2)C(=O)N[C@H]2c3ccccc3OC[C@H]2O)COC12CCCC2", "values": [{"measurement": "IC50", "setting": "Protease", "result": 0.1, "unit": "nM"}, {"measurement": "IC95", "setting": "[1]", "result": 8, "unit": "nM"}, {"measurement": "IC50", "setting": "[3]", "result": 0.5, "unit": "nM"}, {"measurement": "IC95", "setting": "[4]", "result": 125, "unit": "nM"}, {"measurement": "IC95", "setting": "[5]", "result": 62, "unit": "nM"}]}, {"smiles": "Cc1noc(C)c1CNC(=O)[C@H]1N(C(=O)[C@@H](O)C[C@@H](Cc2ccccc2)C(=O)N[C@H]2c3ccccc3OC[C@H]2O)COC12CCCC2", "values": [{"measurement": "IC50", "setting": "Protease", "result": 0.2, "unit": "nM"}, {"measurement": "IC95", "setting": "[1]", "result": 250, "unit": "nM"}, {"measurement": "IC50", "setting": "[2]", "result": 1.5, "unit": "nM"}, {"measurement": "IC50", "setting": "[3]", "result": 3.2, "unit": "nM"}, {"measurement": "IC95", "setting": "[4]", "result": 500, "unit": "nM"}, {"measurement": "IC95", "setting": "[5]", "result": 1000, "unit": "nM"}]}, {"smiles": "Cc1cccc(C)c1CNC(=O)[C@H]1N(C(=O)[C@@H](O)C[C@@H](Cc2ccccc2)C(=O)N[C@H]2c3ccccc3OC[C@H]2O)CCC1(C)C", "values": [{"measurement": "IC50", "setting": "Protease", "result": 0.14, "unit": "nM"}, {"measurement": "IC95", "setting": "[1]", "result": 15, "unit": "nM"}, {"measurement": "IC50", "setting": "[2]", "result": 1.6, "unit": "nM"}, {"measurement": "IC50", "setting": "[3]", "result": 0.4, "unit": "nM"}, {"measurement": "IC95", "setting": "[4]", "result": 500, "unit": "nM"}, {"measurement": "IC95", "setting": "[5]", "result": 31, "unit": "nM"}]}, {"smiles": "Cc1cccc(C)c1CNC(=O)[C@@H]1CCN1C(=O)[C@@H](O)C[C@@H](Cc1ccccc1)C(=O)N[C@H]1c2ccccc2OC[C@H]1O", "values": [{"measurement": "IC50", "setting": "Protease", "result": 90, "unit": "nM"}, {"measurement": "IC95", "setting": "[1]", "result": 1000, "unit": "nM"}]}, {"smiles": "O=C(N[C@H]1c2ccccc2OC[C@H]1O)[C@H](Cc1ccccc1)C[C@H](O)C(=O)N1COC2(CCCC2)[C@H]1C(=O)NCc1c(Cl)cccc1Cl", "values": [{"measurement": "IC50", "setting": "Protease", "result": 0.11, "unit": "nM"}, {"measurement": "IC95", "setting": "[1]", "result": 62.5, "unit": "nM"}, {"measurement": "IC50", "setting": "[2]", "result": 0.5, "unit": "nM"}, {"measurement": "IC50", "setting": "[3]", "result": 1, "unit": "nM"}, {"measurement": "IC95", "setting": "[4]", "result": 250, "unit": "nM"}, {"measurement": "IC95", "setting": "[5]", "result": 500, "unit": "nM"}]}, {"smiles": "Cc1cccc(C)c1CNC(=O)[C@@H]1CCCCN1C(=O)[C@@H](O)C[C@@H](Cc1ccccc1)C(=O)N[C@H]1c2ccccc2OC[C@H]1O", "values": [{"measurement": "IC50", "setting": "Protease", "result": 42, "unit": "nM"}, {"measurement": "IC95", "setting": "[1]", "result": 1000, "unit": "nM"}]}, {"smiles": "Cc1cccc(C)c1CNC(=O)[C@H]1N(C(=O)[C@@H](O)C[C@@H](Cc2ccccc2)C(=O)N[C@H]2c3ccccc3OC[C@H]2O)COC1(C)C", "values": [{"measurement": "IC50", "setting": "Protease", "result": 0.17, "unit": "nM"}, {"measurement": "IC95", "setting": "[1]", "result": 15, "unit": "nM"}, {"measurement": "IC50", "setting": "[2]", "result": 2.2, "unit": "nM"}, {"measurement": "IC50", "setting": "[3]", "result": 1.3, "unit": "nM"}, {"measurement": "IC95", "setting": "[4]", "result": 500, "unit": "nM"}, {"measurement": "IC95", "setting": "[5]", "result": 62, "unit": "nM"}]}, {"smiles": "CC(C)(C)NC(=O)[C@@H]1CN(Cc2cccnc2)CCN1C[C@@H](O)CC(Cc1ccccc1)C(=O)N[C@H]1c2ccccc2C[C@H]1O", "note": "(single isomer, unassigned)", "values": [{"measurement": "IC95", "setting": "[1]", "result": 45, "unit": "nM"}, {"measurement": "IC50", "setting": "[2]", "result": 61, "unit": "nM"}, {"measurement": "IC50", "setting": "[3]", "result": 43.6, "unit": "nM"}, {"measurement": "IC95", "setting": "[4]", "result": 1000, "unit": "nM"}, {"measurement": "IC95", "setting": "[5]", "result": 890, "unit": "nM"}]}]}
